Consider 29 molecules from patent US20240246960A1 (adMare Therapeutics Society, priority 2021, published 2024).

Molecules are shown by their SMILES. pIC50: −log10 of the molar value.

For this assay, the target named is T1, DNA-PK phosphorylation at Serine 2056 (Homo sapiens, UniProt P78527).
T1 construct: host or cells: FaDu
Nature of the assay: Cellular Assay for Inhibition of DNA-PK Phosphorylation at Serine 2056 (FaDu cells, neocarzinostatin, sandwich ELISA). Format: cell-based. The settings on record: Table 3. The method, then: FaDu cells were purchased from ATCC and maintained in MEM alpha medium (Life Technologies, cat. no. 12561) supplemented with 10% fetal bovine serum, and 1% GlutaMAX at 37° C. supplemented with 5% CO2. 50,000 cells were seeded to each well of a 96-well cell culture plate in 50 μL of culture medium and incubated for 16-24 hours. Three-fold serially diluted compounds were prepared in DMSO. Culture media was used to prepare compound treatments to 0.3% DMSO (dimethyl sulphoxide) content. Compound treatments were added to the cells for 1 hour prior incubation, followed by the addition of neocarzinostatin in fresh culture medium to 1 μg/mL final concentration for an additional 2 hours incubation to induce DNA DSBs (double-strand breaks). DMSO controls were incubated with fresh culture medium alone for the additional two hours incubation. The cells were then lysed and frozen at −20° C. Cell lysates were thawed on wet ice and protein concentrations quantified by BCA Protein Assay (Thermo # 23225). Lysis buffer was used to normalize lysates by protein content and all lysates were then investigated by sandwich ELISA by means of DNA-PK-specific antibodies (Abcam ab44815: total DNA-PK; ab124918: phosphoserine-2056 DNA-PK) in sandwich ELISA format on the MSD S600MM platform (MesoScale Discovery). % inhibition was calculated for all data points: =1−(DATA_PT−AVERAGE(DMSO controls))/(AVERAGE(NCS controls)−AVERAGE(DMSO controls)). Logarithm of the molar concentration of compound was plotted against percent inhibition to calculate IC50 values, with curve fit settings for data fit to log(inhibitor) vs. normalized response—Variable slope using curve fit software (GraphPad Prism).
For orientation: An ELISA detects its analyte on a solid surface through an enzyme-linked reagent.
What is called pIC50 is −log10 of the IC50, conventionally taken in molar units. A higher pIC50 goes with a low IC50. Regarding `CNC(=O)c1ccnc(N[C@H]2CC[C@@H](Oc3nc(N4CCOCC4)cc4ncc(NS(C)(=O)=O)cc34)CC2)n1`, the pIC50 is over 7.00.

For `Cc1ccc(F)c(N[C@H]2CC[C@@H](Oc3nc(N4CCOCC4)cc4ncc(NS(C)(=O)=O)cc34)CC2)n1` [LFA1001, N-[5-[4-[(3-fluoro-6-methyl-2-pyridyl)amino]cyclohexoxy]-7-morpholino-1,6-naphthyridin-3-yl]methanesulfonamide], the pIC50 is 6.00 to 7.00.

`CS(=O)(=O)Nc1cnc2cc(N3CCOCC3)nc(O[C@H]3CC[C@@H](Nc4cccnc4)CC3)c2c1` [LFA1002, N-[7-morpholino-5-[4-(3-pyridylamino)cyclohexoxy]-1,6-naphthyridin-3-yl]methanesulfonamide] had a pIC50 of over 7.00.

Molecule `Cc1cccnc1N[C@H]1CC[C@@H](Oc2nc(N3CCOCC3)cc3ncc(NS(C)(=O)=O)cc23)CC1` [LFA1003, N-[5-[4-[(3-methyl-2-pyridyl)amino]cyclohexoxy]-7-morpholino-1,6-naphthyridin-3-yl]methanesulfonamide] gave a pIC50 of over 7.00.

Turning to `CS(=O)(=O)Nc1cnc2cc(N3CCOCC3)nc(O[C@H]3CC[C@@H](Nc4ccc(F)cn4)CC3)c2c1` [LFA1004, N-[5-[4-[(5-fluoro-2-pyridyl)amino]cyclohexoxy]-7-morpholino-1,6-naphthyridin-3-yl]methanesulfonamide], the pIC50 was over 7.00.

The molecule `COc1cccnc1N[C@H]1CC[C@@H](Oc2nc(N3CCOCC3)cc3ncc(NS(C)(=O)=O)cc23)CC1` [LFA1005, N-[5-[4-[(3-methoxy-2-pyridyl)amino]cyclohexoxy]-7-morpholino-1,6-naphthyridin-3-yl]methanesulfonamide] showed a negative-log IC50 (pIC50) of over 7.00.

Take `Cc1cccc(N[C@H]2CC[C@@H](Oc3nc(N4CCOCC4)cc4ncc(NS(C)(=O)=O)cc34)CC2)n1` [LFA1006, N-[5-[4-[(6-methyl-2-pyridyl)amino]cyclohexoxy]-7-morpholino-1,6-naphthyridin-3-yl]methanesulfonamide]: the pIC50 is over 7.00.

Take `CS(=O)(=O)Nc1cnc2cc(N3CCOCC3)nc(O[C@H]3CC[C@@H](Nc4ncccc4F)CC3)c2c1` [LFA1007, N-[5-[4-[(3-fluoro-2-pyridyl)amino]cyclohexoxy]-7-morpholino-1,6-naphthyridin-3-yl]methanesulfonamide]: the pIC50 was over 7.00.

With `CS(=O)(=O)Nc1cnc2cc(N3CCOCC3)nc(O[C@H]3CC[C@@H](Nc4ncccc4C#N)CC3)c2c1` [LFA1008, N-[5-[4-[(3-cyano-2-pyridyl)amino]cyclohexoxy]-7-morpholino-1,6-naphthyridin-3-yl]methanesulfonamide], the negative-log IC50 (pIC50) is over 7.00.

Molecule `Cc1cnc(N[C@H]2CC[C@@H](Oc3nc(N4CCOCC4)cc4ncc(NS(C)(=O)=O)cc34)CC2)c(C)c1` [LFA1009, N-[5-[4-[(3,5-dimethyl-2-pyridyl)amino]cyclohexoxy]-7-morpholino-1,6-naphthyridin-3-yl]methanesulfonamide] had a pIC50 of over 7.00.

In turn, `COc1ccc(C)nc1N[C@H]1CC[C@@H](Oc2nc(N3CCOCC3)cc3ncc(NS(C)(=O)=O)cc23)CC1` [LFA1010, N-[5-[4-[(3-methoxy-6-methyl-2-pyridyl)amino]cyclohexoxy]-7-morpholino-1,6-naphthyridin-3-yl]methanesulfonamide] showed a pIC50 of 6.00 to 7.00.

Consider `Cc1cnc(N[C@H]2CC[C@@H](Oc3nc(N4CCOCC4)cc4ncc(NS(C)(=O)=O)cc34)CC2)c(F)c1` [LFA1011, N-[5-[4-[(3-fluoro-5-methyl-2-pyridyl)amino]cyclohexoxy]-7-morpholino-1,6-naphthyridin-3-yl]methanesulfonamide], for which the pIC50 is over 7.00.

In the case of `Cc1ccncc1N[C@H]1CC[C@@H](Oc2nc(N3CCOCC3)cc3ncc(NS(C)(=O)=O)cc23)CC1` [LFA1012], the pIC50 was over 7.00.

As to `COc1cncc(N[C@H]2CC[C@@H](Oc3nc(N4CCOCC4)cc4ncc(NS(C)(=O)=O)cc34)CC2)c1` [LFA1013, N-[5-[4-[(5-methoxy-3-pyridyl)amino]cyclohexoxy]-7-morpholino-1,6-naphthyridin-3-yl]methanesulfonamide], the pIC50 was 6.00 to 7.00.

Take `CS(=O)(=O)Nc1cnc2cc(N3CCOCC3)nc(O[C@H]3CC[C@@H](Nc4ccncc4Br)CC3)c2c1` [LFA1014, N-[5-[4-[(3-bromo-4-pyridyl)amino]cyclohexoxy]-7-morpholino-1,6-naphthyridin-3-yl]methanesulfonamide]: the pIC50 was over 7.00.

`Cc1ncccc1N[C@H]1CC[C@@H](Oc2nc(N3CCOCC3)cc3ncc(NS(C)(=O)=O)cc23)CC1` [LFA1015, N-[5-[4-[(2-methyl-3-pyridyl)amino]cyclohexoxy]-7-morpholino-1,6-naphthyridin-3-yl]methanesulfonamide] showed a pIC50 of over 7.00.

As to `COc1ccncc1N[C@H]1CC[C@@H](Oc2nc(N3CCOCC3)cc3ncc(NS(C)(=O)=O)cc23)CC1` [LFA1016, N-[5-[4-[(4-methoxy-3-pyridyl)amino]cyclohexoxy]-7-morpholino-1,6-naphthyridin-3-yl]methanesulfonamide], the pIC50 is over 7.00.

`Cc1ccc(N[C@H]2CC[C@@H](Oc3nc(N4CCOCC4)cc4ncc(NS(C)(=O)=O)cc34)CC2)cn1` [LFA1017, N-[5-[4-[(6-methyl-3-pyridyl)amino]cyclohexoxy]-7-morpholino-1,6-naphthyridin-3-yl]methanesulfonamide] showed a pIC50 of 6.00 to 7.00.

Turning to `Cc1nc(N[C@H]2CC[C@@H](Oc3nc(N4CCOCC4)cc4ncc(NS(C)(=O)=O)cc34)CC2)ccc1F` [LFA1018, N-[5-[4-[(5-fluoro-6-methyl-2-pyridyl)amino]cyclohexoxy]-7-morpholino-1,6-naphthyridin-3-yl]methanesulfonamide], the pIC50 was over 7.00.

As to `Cc1ccc(N[C@H]2CC[C@@H](Oc3nc(N4CCOCC4)cc4ncc(NS(C)(=O)=O)cc34)CC2)nc1` [LFA1019, N-[5-[4-[(5-methyl-2-pyridyl)amino]cyclohexoxy]-7-morpholino-1,6-naphthyridin-3-yl]methanesulfonamide], the pIC50 was over 7.00.

`CS(=O)(=O)Nc1cnc2cc(N3CCOCC3)nc(O[C@H]3CC[C@@H](Nc4cccnn4)CC3)c2c1` [LFA1020, N-[7-morpholino-5-[4-(pyridazin-3-ylamino)cyclohexoxy]-1,6-naphthyridin-3-yl]methanesulfonamide] had a pIC50 of over 7.00.

`CS(=O)(=O)Nc1cnc2cc(N3CCOCC3)nc(O[C@H]3CC[C@@H](Nc4ccc(C(F)(F)F)cn4)CC3)c2c1` [LFA1021, N-[7-morpholino-5-[4-[[5-(trifluoromethyl)-2-pyridyl]amino]cyclohexoxy]-1,6-naphthyridin-3-yl]methanesulfonamide]: the pIC50 is over 7.00.

`CS(=O)(=O)Nc1cnc2cc(N3CCOCC3)nc(O[C@H]3CC[C@@H](Nc4ccc(C#N)cn4)CC3)c2c1` [LFA1022, N-[5-[4-[(5-cyano-2-pyridyl)amino]cyclohexoxy]-7-morpholino-1,6-naphthyridin-3-yl]methanesulfonamide] showed a pIC50 of over 7.00.

For the molecule `CS(=O)(=O)Nc1cnc2cc(N3CCOCC3)nc(O[C@H]3CC[C@@H](Nc4ccc(C#N)nn4)CC3)c2c1` [LFA1023, N-[5-[4-[(6-cyanopyridazin-3-yl)amino]cyclohexoxy]-7-morpholino-1,6-naphthyridin-3-yl]methanesulfonamide], the pIC50 is over 7.00.

Molecule `CS(=O)(=O)Nc1cnc2cc(N3CCOCC3)nc(O[C@H]3CC[C@@H](Nc4ncc(F)cc4F)CC3)c2c1` [LFA1024, N-[5-[4-[(3,5-difluoro-2-pyridyl)amino]cyclohexoxy]-7-morpholino-1,6-naphthyridin-3-yl]methanesulfonamide] had a pIC50 of over 7.00.

Take `COc1cc(C#N)cnc1N[C@H]1CC[C@@H](Oc2nc(N3CCOCC3)cc3ncc(NS(C)(=O)=O)cc23)CC1` [LFA1025, N-[5-[4-[(5-cyano-3-methoxy-2-pyridyl)amino]cyclohexoxy]-7-morpholino-1,6-naphthyridin-3-yl]methanesulfonamide]: the pIC50 was over 7.00.

As to `N#Cc1cnc(N[C@H]2CC[C@@H](Oc3nc(N4CCOCC4)cc4ncc(O)cc34)CC2)cn1` [LFA1026, 5-[[4-[(3-hydroxy-7-morpholino-1,6-naphthyridin-5-yl)oxy]cyclohexyl]amino]pyrazine-2-carbonitrile], the pIC50 was 6.00 to 7.00.

As to `COc1cnc(N[C@H]2CC[C@@H](Oc3nc(N4CCOCC4)cc4ncc(NS(C)(=O)=O)cc34)CC2)cn1` [LFA1028, N-[5-[4-[(5-methoxypyrazin-2-yl)amino]cyclohexoxy]-7-morpholino-1,6-naphthyridin-3-yl]methanesulfonamide], the pIC50 is over 7.00.

`CS(=O)(=O)Nc1cnc2cc(N3CCOCC3)nc(O[C@H]3CC[C@@H](Nc4nccnc4C(F)(F)F)CC3)c2c1` [LFA1029, N-[7-morpholino-5-[4-[[3-(trifluoromethyl)pyrazin-2-yl]amino]cyclohexoxy]-1,6-naphthyridin-3-yl]methanesulfonamide] had a pIC50 of over 7.00.
